Test results taken from patent publication US11219603B2, “Stable dosage form of etidronate-cytarabine conjugate, and use thereof” (MAXWELL BIOTECH GROUP LTD., priority 2015, dated 2022).

Assay: Effect of MgCl2 on hydrolysis of MBC-11 in solution (formation of Ara-CMP at 25° C.)
Type: physicochemical
Settings: 25° C.
Description: Studies were performed, where magnesium chloride was investigated as a stabilizer against hydrolytic decomposition. MgCl2 was added to solutions of MBC-11 conjugate in water, tartrate buffer (50 mmol/L, pH 5) and succinate buffer (50 mmol/L, pH 5). The following molar ratios of MgCl2 to MBC-11 were used: (1:2), (1:1), (2:1) and higher (˜12:1). […]

CC(O)(P(=O)(O)O)P(=O)(O)OP(=O)(O)OC[C@H]1O[C@@H](n2ccc(N)nc2=O)[C@@H](O)[C@@H]1O (stereo partly shown) [MBC-11]
Content of Ara-CMP (%) (Succinate buffer, MgCl2 0.87 mmol/L, MgCl2:MBC-11 1:2, t = 0 h): 2.6%
Content of Ara-CMP (%) (Succinate buffer, MgCl2 0.87 mmol/L, MgCl2:MBC-11 1:2, t = 4 h): 3.5%
Content of Ara-CMP (%) (Succinate buffer, MgCl2 0.87 mmol/L, MgCl2:MBC-11 1:2, t = 8 h): 4.4%
Content of Ara-CMP (%) (Succinate buffer, MgCl2 0.87 mmol/L, MgCl2:MBC-11 1:2, t = 24 h): 7.9%
Content of Ara-CMP (%) (Succinate buffer, MgCl2 1.73 mmol/L, MgCl2:MBC-11 1:1, t = 0 h): 2.5%
Content of Ara-CMP (%) (Succinate buffer, MgCl2 1.73 mmol/L, MgCl2:MBC-11 1:1, t = 4 h): 3.1%
Content of Ara-CMP (%) (Succinate buffer, MgCl2 1.73 mmol/L, MgCl2:MBC-11 1:1, t = 8 h): 3.7%
Content of Ara-CMP (%) (Succinate buffer, MgCl2 1.73 mmol/L, MgCl2:MBC-11 1:1, t = 24 h): 5.6%
Content of Ara-CMP (%) (Succinate buffer, MgCl2 3.5 mmol/L, MgCl2:MBC-11 2:1, t = 0 h): 2.6%
Content of Ara-CMP (%) (Succinate buffer, MgCl2 3.5 mmol/L, MgCl2:MBC-11 2:1, t = 4 h): 3.1%
Content of Ara-CMP (%) (Succinate buffer, MgCl2 3.5 mmol/L, MgCl2:MBC-11 2:1, t = 8 h): 3.7%
Content of Ara-CMP (%) (Succinate buffer, MgCl2 3.5 mmol/L, MgCl2:MBC-11 2:1, t = 24 h): 5.8%
Content of Ara-CMP (%) (Succinate buffer, MgCl2 20 mmol/L, MgCl2:MBC-11 ~12:1, t = 0 h): 2.5%
Content of Ara-CMP (%) (Succinate buffer, MgCl2 20 mmol/L, MgCl2:MBC-11 ~12:1, t = 4 h): 2.7%
Content of Ara-CMP (%) (Succinate buffer, MgCl2 20 mmol/L, MgCl2:MBC-11 ~12:1, t = 8 h): 2.9%
Content of Ara-CMP (%) (Succinate buffer, MgCl2 20 mmol/L, MgCl2:MBC-11 ~12:1, t = 24 h): 3.6%
Content of Ara-CMP (%) (Succinate buffer, no MgCl2, t = 0 h): 3.5%
Content of Ara-CMP (%) (Succinate buffer, no MgCl2, t = 4 h): 5.0%
Content of Ara-CMP (%) (Succinate buffer, no MgCl2, t = 8 h): 6.4%
Content of Ara-CMP (%) (Succinate buffer, no MgCl2, t = 24 h): 11.5%
Content of Ara-CMP (%) (Tartrate buffer, MgCl2 0.87 mmol/L, MgCl2:MBC-11 1:2, t = 0 h): 2.5%
Content of Ara-CMP (%) (Tartrate buffer, MgCl2 0.87 mmol/L, MgCl2:MBC-11 1:2, t = 4 h): 3.5%
Content of Ara-CMP (%) (Tartrate buffer, MgCl2 0.87 mmol/L, MgCl2:MBC-11 1:2, t = 8 h): 4.5%
Content of Ara-CMP (%) (Tartrate buffer, MgCl2 0.87 mmol/L, MgCl2:MBC-11 1:2, t = 24 h): 8.4%
Content of Ara-CMP (%) (Tartrate buffer, MgCl2 1.73 mmol/L, MgCl2:MBC-11 1:1, t = 0 h): 2.6%
Content of Ara-CMP (%) (Tartrate buffer, MgCl2 1.73 mmol/L, MgCl2:MBC-11 1:1, t = 4 h): 3.3%
Content of Ara-CMP (%) (Tartrate buffer, MgCl2 1.73 mmol/L, MgCl2:MBC-11 1:1, t = 8 h): 4.1%
Content of Ara-CMP (%) (Tartrate buffer, MgCl2 1.73 mmol/L, MgCl2:MBC-11 1:1, t = 24 h): 7.3%
Content of Ara-CMP (%) (Tartrate buffer, MgCl2 3.5 mmol/L, MgCl2:MBC-11 2:1, t = 0 h): 2.5%
Content of Ara-CMP (%) (Tartrate buffer, MgCl2 3.5 mmol/L, MgCl2:MBC-11 2:1, t = 4 h): 3.0%
Content of Ara-CMP (%) (Tartrate buffer, MgCl2 3.5 mmol/L, MgCl2:MBC-11 2:1, t = 8 h): 3.5%
Content of Ara-CMP (%) (Tartrate buffer, MgCl2 3.5 mmol/L, MgCl2:MBC-11 2:1, t = 24 h): 5.5%
Content of Ara-CMP (%) (Tartrate buffer, MgCl2 20 mmol/L, MgCl2:MBC-11 ~12:1, t = 0 h): 2.6%
Content of Ara-CMP (%) (Tartrate buffer, MgCl2 20 mmol/L, MgCl2:MBC-11 ~12:1, t = 4 h): 2.7%
Content of Ara-CMP (%) (Tartrate buffer, MgCl2 20 mmol/L, MgCl2:MBC-11 ~12:1, t = 8 h): 3.0%
Content of Ara-CMP (%) (Tartrate buffer, MgCl2 20 mmol/L, MgCl2:MBC-11 ~12:1, t = 24 h): 3.8%
Content of Ara-CMP (%) (Tartrate buffer, no MgCl2, t = 0 h): 3.8%
Content of Ara-CMP (%) (Tartrate buffer, no MgCl2, t = 4 h): 5.3%
Content of Ara-CMP (%) (Tartrate buffer, no MgCl2, t = 8 h): 6.6%
Content of Ara-CMP (%) (Tartrate buffer, no MgCl2, t = 24 h): 11.7%
Content of Ara-CMP (%) (Water, MgCl2 0.87 mmol/L, MgCl2:MBC-11 1:2, t = 0 h): 2.6%
Content of Ara-CMP (%) (Water, MgCl2 0.87 mmol/L, MgCl2:MBC-11 1:2, t = 4 h): 3.3%
Content of Ara-CMP (%) (Water, MgCl2 0.87 mmol/L, MgCl2:MBC-11 1:2, t = 8 h): 4.0%
Content of Ara-CMP (%) (Water, MgCl2 0.87 mmol/L, MgCl2:MBC-11 1:2, t = 24 h): 6.8%
Content of Ara-CMP (%) (Water, MgCl2 1.73 mmol/L, MgCl2:MBC-11 1:1, t = 0 h): 2.5%
Content of Ara-CMP (%) (Water, MgCl2 1.73 mmol/L, MgCl2:MBC-11 1:1, t = 4 h): 2.8%
